The NIST ThermoML archive (doi:10.1016/j.jct.2013.10.025)
Numbers after ± are expanded uncertainties.

Assay: xn = mol fraction of the nth substance listed
Conditions: 101 kPa, Liquid; for viscosity: Capillary tube (Ostwald / Ubbelohde) method; for speed of sound: Sing-around technique in a fixed-path interferometer; for mass density: Vibrating tube method

C1CCOC1 [tetrahydrofuran] + CCCCCCCCO
Conditions | mass density [kg/m3] | speed of sound [m/s] | viscosity [mPa·s]
298.15 K, x1 = 0.0541 | 823.522 ± 0.24 | 1344.5 ± 1.5 | 6.305 ± 0.36
298.15 K, x1 = 0.1044 | 825.135 ± 0.24 | 1341.3 ± 1.5 | 5.403 ± 0.36
298.15 K, x1 = 0.1535 | 826.78 ± 0.24 | 1337.5 ± 1.5 | 4.698 ± 0.36
298.15 K, x1 = 0.205 | 828.609 ± 0.24 | 1333.5 ± 1.5 | 4.025 ± 0.36
298.15 K, x1 = 0.2574 | 830.564 ± 0.24 | 1329.8 ± 1.5 | 3.477 ± 0.36
298.15 K, x1 = 0.3054 | 832.449 ± 0.24 | 1326.5 ± 1.5 | 2.996 ± 0.36
298.15 K, x1 = 0.4003 | 836.541 ± 0.24 | 1319.6 ± 1.5 | 2.307 ± 0.36
298.15 K, x1 = 0.5004 | 841.464 ± 0.24 | 1312.2 ± 1.5 | 1.747 ± 0.36
298.15 K, x1 = 0.6111 | 847.802 ± 0.24 | 1302.9 ± 1.5 | 1.271 ± 0.36
298.15 K, x1 = 0.7032 | 853.984 ± 0.24 | 1295.5 ± 1.5 | 0.996 ± 0.36
298.15 K, x1 = 0.8116 | 862.541 ± 0.24 | 1287.9 ± 1.5 | 0.747 ± 0.36
298.15 K, x1 = 0.9048 | 871.362 ± 0.23 | 1281.7 ± 1.5 | 0.589
303.15 K, x1 = 0.0541 | 819.992 ± 0.24 | 1327.7 ± 1.5 | 5.227 ± 0.36
303.15 K, x1 = 0.1044 | 821.552 ± 0.24 | 1324.3 ± 1.5 | 4.562 ± 0.36
303.15 K, x1 = 0.1535 | 823.145 ± 0.24 | 1320.4 ± 1.5 | 3.988 ± 0.36
303.15 K, x1 = 0.205 | 824.915 ± 0.24 | 1316 ± 1.5 | 3.395 ± 0.36
303.15 K, x1 = 0.2574 | 826.809 ± 0.24 | 1312.4 ± 1.5 | 3.014 ± 0.36
303.15 K, x1 = 0.3054 | 828.634 ± 0.24 | 1308.7 ± 1.5 | 2.602 ± 0.36
303.15 K, x1 = 0.4003 | 832.585 ± 0.24 | 1301.4 ± 1.5 | 2.089 ± 0.36
303.15 K, x1 = 0.5004 | 837.343 ± 0.24 | 1293.4 ± 1.5 | 1.566 ± 0.36
303.15 K, x1 = 0.6111 | 843.471 ± 0.24 | 1283.4 ± 1.5 | 1.173 ± 0.36
303.15 K, x1 = 0.7032 | 849.444 ± 0.24 | 1275.5 ± 1.5 | 0.931 ± 0.36
303.15 K, x1 = 0.8116 | 857.718 ± 0.24 | 1266.9 ± 1.5 | 0.715
303.15 K, x1 = 0.9048 | 866.235 ± 0.23 | 1259.7 ± 1.5 | 0.566
308.15 K, x1 = 0.0541 | 816.44 ± 0.24 | 1310.7 ± 1.5 | 4.208 ± 0.36
308.15 K, x1 = 0.1044 | 817.948 ± 0.24 | 1307.3 ± 1.5 | 3.709 ± 0.36
308.15 K, x1 = 0.1535 | 819.488 ± 0.24 | 1303 ± 1.5 | 3.217 ± 0.36
308.15 K, x1 = 0.205 | 821.202 ± 0.24 | 1298.8 ± 1.5 | 2.779 ± 0.36
308.15 K, x1 = 0.2574 | 823.029 ± 0.24 | 1294.7 ± 1.5 | 2.46 ± 0.36
308.15 K, x1 = 0.3054 | 824.796 ± 0.24 | 1290.9 ± 1.5 | 2.176 ± 0.36
308.15 K, x1 = 0.4003 | 828.614 ± 0.24 | 1283.1 ± 1.5 | 1.748 ± 0.36
308.15 K, x1 = 0.5004 | 833.216 ± 0.24 | 1274.6 ± 1.5 | 1.348 ± 0.36
308.15 K, x1 = 0.6111 | 839.116 ± 0.24 | 1264.1 ± 1.5 | 1.014 ± 0.36
308.15 K, x1 = 0.7032 | 844.874 ± 0.24 | 1255.2 ± 1.5 | 0.819 ± 0.36
308.15 K, x1 = 0.8116 | 852.874 ± 0.24 | 1244.9 ± 1.5 | 0.632
308.15 K, x1 = 0.9048 | 861.083 ± 0.24 | 1237 ± 1.5 | 0.514
313.15 K, x1 = 0.0541 | 812.862 ± 0.24 | 1294.2 ± 1.5 | –
313.15 K, x1 = 0.1044 | 814.315 ± 0.24 | 1290.6 ± 1.5 | –
313.15 K, x1 = 0.1535 | 815.803 ± 0.24 | 1286.2 ± 1.5 | –
313.15 K, x1 = 0.205 | 817.465 ± 0.24 | 1282 ± 1.5 | –
313.15 K, x1 = 0.2574 | 819.222 ± 0.24 | 1277.6 ± 1.5 | –
313.15 K, x1 = 0.3054 | 820.932 ± 0.24 | 1273.8 ± 1.5 | –
313.15 K, x1 = 0.4003 | 824.625 ± 0.24 | 1265.5 ± 1.5 | –
313.15 K, x1 = 0.5004 | 829.064 ± 0.24 | 1256.5 ± 1.5 | –
313.15 K, x1 = 0.6111 | 834.743 ± 0.24 | 1245.4 ± 1.5 | –
313.15 K, x1 = 0.7032 | 840.294 ± 0.24 | 1236.1 ± 1.5 | –
313.15 K, x1 = 0.8116 | 848 ± 0.24 | 1225 ± 1.5 | –
313.15 K, x1 = 0.9048 | 855.903 ± 0.24 | 1216.3 ± 1.5 | –

CCCCCCCCCCO [decan-1-ol] + C1CCOC1
Conditions | mass density [kg/m3] | speed of sound [m/s] | viscosity [mPa·s]
298.15 K, x2 = 0.0503 | 827.6 ± 0.24 | 1372.7 ± 1.5 | 9.806 ± 0.37
298.15 K, x2 = 0.1046 | 828.949 ± 0.24 | 1368.8 ± 1.5 | 8.47 ± 0.36
298.15 K, x2 = 0.157 | 830.327 ± 0.24 | 1365.1 ± 1.5 | 7.201 ± 0.36
298.15 K, x2 = 0.2022 | 831.593 ± 0.24 | 1361.8 ± 1.5 | 6.345 ± 0.36
298.15 K, x2 = 0.253 | 833.093 ± 0.24 | 1357.5 ± 1.5 | 5.428 ± 0.36
298.15 K, x2 = 0.3057 | 834.766 ± 0.24 | 1352.6 ± 1.5 | 4.609 ± 0.36
298.15 K, x2 = 0.4094 | 838.49 ± 0.24 | 1343.7 ± 1.5 | 3.343 ± 0.36
298.15 K, x2 = 0.5018 | 842.347 ± 0.24 | 1334 ± 1.5 | 2.503 ± 0.36
298.15 K, x2 = 0.6038 | 847.354 ± 0.24 | 1323.4 ± 1.5 | 1.842 ± 0.36
298.15 K, x2 = 0.7003 | 853.111 ± 0.24 | 1312.4 ± 1.5 | 1.366 ± 0.36
298.15 K, x2 = 0.8004 | 860.53 ± 0.24 | 1299.3 ± 1.5 | 0.98 ± 0.36
298.15 K, x2 = 0.9043 | 870.265 ± 0.23 | 1286.4 ± 1.5 | 0.691
303.15 K, x2 = 0.0503 | 824.137 ± 0.24 | 1355.9 ± 1.5 | 8.074 ± 0.36
303.15 K, x2 = 0.1046 | 825.438 ± 0.24 | 1351.7 ± 1.5 | 7.037 ± 0.36
303.15 K, x2 = 0.157 | 826.766 ± 0.24 | 1348.3 ± 1.5 | 6.17 ± 0.36
303.15 K, x2 = 0.2022 | 827.998 ± 0.24 | 1344.4 ± 1.5 | 5.262 ± 0.36
303.15 K, x2 = 0.253 | 829.453 ± 0.24 | 1339.9 ± 1.5 | 4.527 ± 0.36
303.15 K, x2 = 0.3057 | 831.076 ± 0.24 | 1335 ± 1.5 | 3.958 ± 0.36
303.15 K, x2 = 0.4094 | 834.656 ± 0.24 | 1325.7 ± 1.5 | 2.908 ± 0.36
303.15 K, x2 = 0.5018 | 838.365 ± 0.24 | 1315.6 ± 1.5 | 2.095 ± 0.36
303.15 K, x2 = 0.6038 | 843.203 ± 0.24 | 1304.3 ± 1.5 | 1.635 ± 0.36
303.15 K, x2 = 0.7003 | 848.748 ± 0.24 | 1292.6 ± 1.5 | 1.224 ± 0.36
303.15 K, x2 = 0.8004 | 855.869 ± 0.24 | 1278.9 ± 1.5 | 0.907 ± 0.36
303.15 K, x2 = 0.9043 | 865.235 ± 0.23 | 1264.9 ± 1.5 | 0.649
308.15 K, x2 = 0.0503 | 820.661 ± 0.24 | 1339.1 ± 1.5 | 6.379 ± 0.36
308.15 K, x2 = 0.1046 | 821.913 ± 0.24 | 1335 ± 1.5 | 5.67 ± 0.36
308.15 K, x2 = 0.157 | 823.195 ± 0.24 | 1331.1 ± 1.5 | 4.969 ± 0.36
308.15 K, x2 = 0.2022 | 824.389 ± 0.24 | 1327 ± 1.5 | 4.236 ± 0.36
308.15 K, x2 = 0.253 | 825.796 ± 0.24 | 1322.2 ± 1.5 | 3.663 ± 0.36
308.15 K, x2 = 0.3057 | 827.357 ± 0.24 | 1317.2 ± 1.5 | 3.249 ± 0.36
308.15 K, x2 = 0.4094 | 830.825 ± 0.24 | 1307.1 ± 1.5 | 2.385 ± 0.36
308.15 K, x2 = 0.5018 | 834.401 ± 0.24 | 1296.8 ± 1.5 | 1.738 ± 0.36
308.15 K, x2 = 0.6038 | 839.036 ± 0.24 | 1284.4 ± 1.5 | 1.408 ± 0.36
308.15 K, x2 = 0.7003 | 844.365 ± 0.24 | 1271.8 ± 1.5 | 1.04 ± 0.36
308.15 K, x2 = 0.8004 | 851.199 ± 0.24 | 1257.6 ± 1.5 | 0.807 ± 0.36
308.15 K, x2 = 0.9043 | 860.184 ± 0.24 | 1241.5 ± 1.5 | 0.58
313.15 K, x2 = 0.0503 | 817.16 ± 0.24 | 1322.7 ± 1.5 | –
313.15 K, x2 = 0.1046 | 818.367 ± 0.24 | 1318.3 ± 1.5 | –
313.15 K, x2 = 0.157 | 819.603 ± 0.24 | 1314.4 ± 1.5 | –
313.15 K, x2 = 0.2022 | 820.753 ± 0.24 | 1310.1 ± 1.5 | –
313.15 K, x2 = 0.253 | 822.116 ± 0.24 | 1305.7 ± 1.5 | –
313.15 K, x2 = 0.3057 | 823.62 ± 0.24 | 1300.1 ± 1.5 | –
313.15 K, x2 = 0.4094 | 826.953 ± 0.24 | 1289.6 ± 1.5 | –
313.15 K, x2 = 0.5018 | 830.393 ± 0.24 | 1278.9 ± 1.5 | –
313.15 K, x2 = 0.6038 | 834.849 ± 0.24 | 1266.3 ± 1.5 | –
313.15 K, x2 = 0.7003 | 839.96 ± 0.24 | 1253.2 ± 1.5 | –
313.15 K, x2 = 0.8004 | 846.506 ± 0.24 | 1238.4 ± 1.5 | –
313.15 K, x2 = 0.9043 | 855.097 ± 0.24 | 1221.6 ± 1.5 | –
